According to patent US9096593B2, “Compounds and methods for kinase modulation, and indications therefor” (Plexxikon Inc., priority 2009, dated 2015):
Where two headings read alike, the source gives them in different places.

Experiments:
[1] = target: BCR-FMS/BaF3 cells (Homo sapiens, UniProt P07333); test: BCR-FMS/BaF3 cell proliferation assay (ATPlite); format: cell-based
In short: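 Proliferation read by ATPlite luminescence after 3 days' exposure (37 °C, 5% CO2) to compound in 1:3 dilutions, eight points, maximum 10 μM final, DMSO control.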

[2] = target: Fms kinase (Homo sapiens (Human), UniProt P07333); test: Fms kinase biochemical activity assay (AlphaScreen, biotin-(E4Y)10 phosphorylation)
Chain of Fms kinase (P07333 20-972): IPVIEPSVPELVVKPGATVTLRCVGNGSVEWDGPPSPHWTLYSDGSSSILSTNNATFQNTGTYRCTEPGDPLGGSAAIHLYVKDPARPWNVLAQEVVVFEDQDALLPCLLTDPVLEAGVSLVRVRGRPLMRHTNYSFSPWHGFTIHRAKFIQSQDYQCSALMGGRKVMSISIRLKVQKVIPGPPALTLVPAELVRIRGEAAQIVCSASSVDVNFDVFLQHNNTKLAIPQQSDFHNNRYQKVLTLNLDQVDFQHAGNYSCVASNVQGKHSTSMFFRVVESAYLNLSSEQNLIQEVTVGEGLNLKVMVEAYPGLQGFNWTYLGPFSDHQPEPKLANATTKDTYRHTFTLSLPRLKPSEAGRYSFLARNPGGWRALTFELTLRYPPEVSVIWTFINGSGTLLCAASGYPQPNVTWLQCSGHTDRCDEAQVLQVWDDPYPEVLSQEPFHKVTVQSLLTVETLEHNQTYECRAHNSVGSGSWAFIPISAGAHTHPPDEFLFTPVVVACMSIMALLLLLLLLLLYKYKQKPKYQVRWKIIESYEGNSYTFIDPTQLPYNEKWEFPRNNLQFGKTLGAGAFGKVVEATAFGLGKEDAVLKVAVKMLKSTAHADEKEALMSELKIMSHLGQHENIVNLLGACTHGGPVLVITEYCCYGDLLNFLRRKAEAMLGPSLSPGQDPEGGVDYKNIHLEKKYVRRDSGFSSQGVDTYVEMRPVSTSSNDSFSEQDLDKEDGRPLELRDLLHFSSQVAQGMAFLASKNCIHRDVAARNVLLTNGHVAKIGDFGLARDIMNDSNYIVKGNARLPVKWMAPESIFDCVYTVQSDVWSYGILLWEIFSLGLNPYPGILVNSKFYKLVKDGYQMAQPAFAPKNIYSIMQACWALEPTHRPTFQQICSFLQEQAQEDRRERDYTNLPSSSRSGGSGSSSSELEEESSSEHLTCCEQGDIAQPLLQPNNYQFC
In short: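 Recombinant human Fms phosphorylating 30 nM biotin-(E4Y)10 with 100 μM ATP (1 ng/well enzyme) in Hepes pH 7.5 buffer with Mg2+/Mn2+, 5% DMSO, 20 min at 30 °C. Phosphotyrosine detected by AlphaScreen streptavidin donor/PY20 acceptor beads; IC50 from signal versus compound concentration.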

[3] = target: c-Kit kinase (Homo sapiens (Human), UniProt P10721); test: c-Kit kinase biochemical activity assay (AlphaScreen, biotin-(E4Y)10 phosphorylation)
Chain of c-Kit kinase (P10721 26-976): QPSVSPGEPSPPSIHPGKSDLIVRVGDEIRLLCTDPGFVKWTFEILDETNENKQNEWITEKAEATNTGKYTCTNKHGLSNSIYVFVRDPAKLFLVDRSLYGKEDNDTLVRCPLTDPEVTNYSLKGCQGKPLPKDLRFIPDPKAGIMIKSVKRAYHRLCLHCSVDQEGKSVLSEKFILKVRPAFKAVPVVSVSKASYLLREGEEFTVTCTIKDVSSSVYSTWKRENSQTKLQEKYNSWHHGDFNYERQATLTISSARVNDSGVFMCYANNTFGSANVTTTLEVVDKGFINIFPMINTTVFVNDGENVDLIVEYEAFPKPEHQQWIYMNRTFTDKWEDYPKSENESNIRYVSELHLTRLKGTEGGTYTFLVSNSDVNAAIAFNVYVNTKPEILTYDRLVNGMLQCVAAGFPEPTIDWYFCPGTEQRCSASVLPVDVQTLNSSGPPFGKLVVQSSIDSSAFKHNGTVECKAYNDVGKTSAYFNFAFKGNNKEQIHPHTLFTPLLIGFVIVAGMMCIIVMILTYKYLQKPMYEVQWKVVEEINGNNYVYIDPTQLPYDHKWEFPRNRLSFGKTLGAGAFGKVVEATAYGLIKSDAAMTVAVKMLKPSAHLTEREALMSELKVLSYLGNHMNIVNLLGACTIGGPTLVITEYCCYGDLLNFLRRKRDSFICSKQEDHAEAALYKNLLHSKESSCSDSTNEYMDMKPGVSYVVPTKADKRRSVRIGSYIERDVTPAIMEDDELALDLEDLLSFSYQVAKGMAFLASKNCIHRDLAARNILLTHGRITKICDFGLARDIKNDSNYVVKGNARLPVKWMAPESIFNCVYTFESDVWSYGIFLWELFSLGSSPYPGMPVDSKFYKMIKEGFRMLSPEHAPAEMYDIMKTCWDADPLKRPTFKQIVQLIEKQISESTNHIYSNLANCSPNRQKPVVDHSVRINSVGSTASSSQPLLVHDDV
Protocol: In one assay the biochemical activity IC50 values are determined with respect to inhibition of c-Kit kinase activity, where inhibition of phosphorylation of a peptide substrate is measured as a function of compound concentration. Compounds to be tested are dissolved in DMSO to a concentration of 20 mM. These are diluted 30 μL into 120 μL of DMSO (4 mM) and 1 μL is added to an assay plate. These are then serially diluted […] (50 μL to 100 μL DMSO) for a total of 8 points. Plates are prepared such that each kinase reaction is 20 μL in 1× kinase buffer (25 mM HEPES, pH 7.5, 2 mM MgCl2, 2 mM MnCl2, 0.01% Tween-20, 1 mM DTT, 0.01% BSA), 5% DMSO and 100 μM ATP. Substrate is 30 nM biotin-(E4Y)10 (Millipore). C-kit kinase (obtained from Millipore (#14-559) or is prepared as described in U.S. Patent Application Publication Number 2009/0076046, the disclosure of which is hereby incorporated by reference as it relates to this assay) is at 0.75 ng per sample. After incubation of the kinase reaction for 1 hour at room temperature, 5 μL of donor beads (Streptavidin coated beads (Perkin Elmer Life Science) final concentration 10 μg/mL) in stop buffer (25 mM Hepes pH 7.5, 100 mM EDTA, 0.01% BSA) is added, the sample is mixed and incubated for 20 minutes at room temperature before adding 5 μL of acceptor beads (PY20 coated beads (Perkin Elmer Life Science) final concentration 10 μg/mL) in stop buffer. The samples are incubated for 60 minutes at room temperature and the signal per well is read on Envision reader. […] The signal vs. compound concentration is used to determine the IC50.

[4] = BCR-FMS/BaF3 cells; read-out: BCR/BaF3 (IC50 μM) Fms
[5] = Kit IC50/Fms IC50, BCR-KIT/BaF3 vs BCR-FMS/BaF3 cells
[6] = read-out: Biochemical activity (IC50 μM) Fms
[7] = read-out: BCR/BaF3 (IC50 μM) Fms; BCR-FMS/BaF3 cells
[8] = read-out: Cell based (IC50 μM) BCR/BaF3 (Fms); BCR-FMS/BaF3 cells, 3 days
[9] = 100 μM ATP, read-out: Biochemical (IC50 μM) Fms

Chain of BCR-FMS/BaF3 cells (P07333 20-972 limits assumed, change not shown): as the sequence (P07333 20-972) above

SMILES	IC50 [1, 4] [µM]	BCR/BaF3 selectivity (Kit IC50/Fms IC50) [1, 5]	Biochemical activity selectivity (Kit IC50/Fms IC50) [2]	IC50 [2, 6] [µM]	IC50 [3] [µM]	IC50 [1, 7] [µM]	IC50 [1, 8] [µM]	IC50 [2, 9] [µM]	IC50 ([1]; BCR-FMS/BaF3 cells, 3 days; read-out: Cell based (IC50 μM) BCR/BaF3 (Fms)) [µM]
Fc1cc(Cc2c[nH]c3ncc(Cl)cc23)cnc1NCc1ccc(C(F)(F)F)nc1 [Compound P-2172, [5-(5-Chloro-1H-pyrrolo[2,3-b]pyridin-3-ylmethyl)-3-fluoro-pyridin-2-yl]-(6-trifluoromethyl-pyridin-3-ylmethyl)-amine]	< 0.1	<20	<20	< 0.1	< 0.1				
COc1cnc2[nH]cc(Cc3ccc(NCc4cncc(F)c4)nc3F)c2c1 [Compound P-2028, [6-Fluoro-5-(5-methoxy-1H-pyrrolo[2,3-b]pyridin-3-ylmethyl)-pyridin-2-yl]-(5-fluoro-pyridin-3-ylmethyl)-amine]		>20	>20	< 0.1	> 0.1	< 0.1			
COc1cnc2[nH]cc(Cc3cnc(NCc4ccc(C(F)(F)F)nc4)c(F)c3)c2c1 [Compound P-2147, [3-Fluoro-5-(5-methoxy-1H-pyrrolo[2,3-b]pyridin-3-ylmethyl)-pyridin-2-yl]-(6-trifluoromethyl-pyridin-3-ylmethyl)-amine]		<20	<20	< 0.1	< 0.1	< 0.1			
Cc1cnc2[nH]cc(Cc3cnc(NCc4ccc(Cl)nc4)nc3)c2c1 [Compound P-2078, (6-Chloro-pyridin-3-ylmethyl)-[5-(5-methyl-1H-pyrrolo[2,3-b]pyridin-3-ylmethyl)-pyrimidin-2-yl]-amine]		>20	>20	< 0.1	> 0.1	< 0.1			
COc1ncccc1CNc1ccc(Cc2c[nH]c3ncccc23)c(F)n1 [Compound P-2045, [6-Fluoro-5-(1H-pyrrolo[2,3-b]pyridin-3-ylmethyl)-pyridin-2-yl]-(2-methoxy-pyridin-3-ylmethyl)-amine]		>20	>20	< 0.1	> 0.1	< 0.1			
COc1ncc(CNc2ccc(Cc3c[nH]c4ncc(Cl)cc34)c(F)n2)cc1F [Compound P-2165, [5-(5-Chloro-1H-pyrrolo[2,3-b]pyridin-3-ylmethyl)-6-fluoro-pyridin-2-yl]-(5-fluoro-6-methoxy-pyridin-3-ylmethyl)-amine]		>20	>20	< 0.1	> 0.1	< 0.1	< 0.1	< 0.1	
Cc1cnc2[nH]cc(Cc3cnc(NCc4ccc(C(F)(F)F)nc4)c(F)c3)c2c1 [Compound P-2146, [3-Fluoro-5-(5-methyl-1H-pyrrolo[2,3-b]pyridin-3-ylmethyl)-pyridin-2-yl]-(6-trifluoromethyl-pyridin-3-ylmethyl)-amine]		<20	<20	< 0.1	< 0.1	< 0.1			
Fc1ccc(CNc2ccc(Cc3c[nH]c4ncc(Cl)cc34)cn2)cn1 [Compound P-2004, [5-(5-chloro-1H-pyrrolo[2,3-b]pyridin-3-ylmethyl)-pyridin-2-yl]-(6-fluoro-pyridin-3-ylmethyl)-amine]		<20	<20	< 0.1	< 0.1	< 0.1	< 0.1	< 0.1	
Cc1cccc(CNc2ncc(Cc3c[nH]c4ncc(Cl)cc34)cn2)c1 [Compound P-2013, [5-(5-Chloro-1H-pyrrolo[2,3-b]pyridin-3-ylmethyl)-pyrimidin-2-yl]-(3-methyl-benzyl)-amine]	< 0.1	<20	<20	< 0.1	< 0.1				
Cc1cnc2[nH]cc(Cc3ccc(NCc4ccc(C(F)(F)F)nc4)nc3)c2c1 [Compound P-2019, [5-(5-Methyl-1H-pyrrolo[2,3-b]pyridin-3-ylmethyl)-pyridin-2-yl]-(6-trifluoromethyl-pyridin-3-ylmethyl)-amine]		<20	<20	< 0.1	< 0.1	< 0.1	< 0.1	< 0.1	
CCS(=O)(=O)Nc1cc(F)cc(CNc2ccc(Cc3c[nH]c4ncc(C)cc34)c(F)n2)c1 [Compound P-2202, Ethanesulfonic acid (3-fluoro-5-{[6-fluoro-5-(5-methyl-1H-pyrrolo[2,3-b]pyridin-3-ylmethyl)-pyridin-2-ylamino]-methyl}-phenyl)-amide]	< 0.1	<20	<20	< 0.1	> 0.1				
Fc1cncc(CNc2ccc(Cc3c[nH]c4ncc(Cl)cc34)c(F)n2)c1 [Compound P-2001, [5-(5-Chloro-1H-pyrrolo[2,3-b]pyridin-3-ylmethyl)-6-fluoro-pyridin-2-yl]-(5-fluoro-pyridin-3-ylmethyl)-amine]		>20	>20	< 0.1	> 0.1	< 0.1			
COc1ccc(CNc2ccc(Cc3c[nH]c4ncc(F)cc34)c(F)n2)cn1 [Compound P-1622, [6-Fluoro-5-(5-fluoro-1H-pyrrolo[2,3-b]pyridin-3-ylmethyl)-pyridin-2-yl]-(6-methoxy-pyridin-3-ylmethyl)-amine]		>20	>20	< 0.1	> 0.1	< 0.1			
Clc1cnc2[nH]cc(Cc3ccc(NCc4ccc(Cl)nc4)nc3)c2c1 [Compound P-2003]	< 0.1	<20	<20	< 0.1	< 0.1			< 0.1	< 0.1
COc1cc(CNc2ccc(Cc3c[nH]c4ncc(C)cc34)c(F)n2)c(F)cn1 [Compound P-2071, (5-Fluoro-2-methoxy-pyridin-4-ylmethyl)-[6-fluoro-5-(5-methyl-1H-pyrrolo[2,3-b]pyridin-3-ylmethyl)-pyridin-2-yl]-amine]		>20	>20	< 0.1	> 0.1	> 0.1			
Cc1cnc2[nH]cc(Cc3cnc(NCc4cccnc4OC4CCCC4)nc3)c2c1 [Compound P-2148, (2-Cyclopentyloxy-pyridin-3-ylmethyl)-[5-(5-methyl-1H-pyrrolo[2,3-b]pyridin-3-ylmethyl)-pyrimidin-2-yl]-amine]	< 0.1	<20	<20	< 0.1	> 0.1				
Cc1cnc2[nH]cc(Cc3ccc(NCc4cnccc4C(F)(F)F)nc3)c2c1 [Compound P-2070, [5-(5-Methyl-1H-pyrrolo[2,3-b]pyridin-3-ylmethyl)-pyridin-2-yl]-(4-trifluoromethyl-pyridin-3-ylmethyl)-amine]	< 0.1	>20	<20	< 0.1	< 0.1				
COc1ncccc1CNc1ncc(Cc2c[nH]c3ncc(C)cc23)cn1 [Compound P-2139, (2-Methoxy-pyridin-3-ylmethyl)-[5-(5-methyl-1H-pyrrolo[2,3-b]pyridin-3-ylmethyl)-pyrimidin-2-yl]-amine]		<20	>20	< 0.1	> 0.1	> 0.1			
